Laboratory results taken from the NIST ThermoML archive (doi:10.1016/j.jct.2010.08.006).
Numbers after ± are expanded uncertainties.

Experiments:
[1] = 101.33 kPa, Liquid, Vibrating tube method
[2] = xn = mol fraction of the nth substance listed; settings: 101 kPa, Liquid, Vibrating tube method

C1CCOC1 [tetrahydrofuran]
[1]
Settings	mass density [kg/m3]
278.15 K	903.71 ± 0.07
288.15 K	892.94 ± 0.08
298.15 K	882.04 ± 0.08
308.15 K	871.01 ± 0.09
318.15 K	859.84 ± 0.09

C1CCOC1 [tetrahydrofuran] + O
mass density [kg/m3], [2]
Settings	278.15 K	288.15 K	298.15 K	308.15 K	318.15 K
x2 = 0.001775	903.78 ± 0.07	893.01 ± 0.08	882.11 ± 0.08	871.08 ± 0.09	859.91 ± 0.09
x2 = 0.003887	903.87 ± 0.07	893.1 ± 0.08	882.19 ± 0.08	871.16 ± 0.09	859.99 ± 0.09
x2 = 0.005362	903.93 ± 0.07	893.16 ± 0.08	882.25 ± 0.08	871.23 ± 0.09	860.05 ± 0.09
x2 = 0.007677	904.02 ± 0.07	893.25 ± 0.08	882.35 ± 0.08	871.32 ± 0.09	860.15 ± 0.09
x2 = 0.01096	904.16 ± 0.07	893.38 ± 0.08	882.48 ± 0.08	871.45 ± 0.09	860.28 ± 0.09
x2 = 0.0142	904.29 ± 0.07	893.52 ± 0.08	882.61 ± 0.08	871.58 ± 0.09	860.41 ± 0.09
x2 = 0.01729	904.42 ± 0.07	893.65 ± 0.08	882.74 ± 0.08	871.71 ± 0.09	860.53 ± 0.09
x2 = 0.01971	904.52 ± 0.07	893.75 ± 0.08	882.84 ± 0.08	871.81 ± 0.09	860.63 ± 0.09
x2 = 0.02568	904.78 ± 0.07	894 ± 0.08	883.09 ± 0.08	872.06 ± 0.09	860.88 ± 0.09
x2 = 0.03393	905.13 ± 0.07	894.35 ± 0.08	883.44 ± 0.08	872.41 ± 0.09	861.22 ± 0.09
x2 = 0.04278	905.52 ± 0.07	894.74 ± 0.08	883.83 ± 0.08	872.79 ± 0.09	861.6 ± 0.09

[2H]O[2H] [water-d2] + C1CCOC1
mass density [kg/m3], [2]
Settings	278.15 K	288.15 K	298.15 K	308.15 K	318.15 K
x1 = 0.001848	903.83 ± 0.07	893.06 ± 0.08	882.16 ± 0.08	871.13 ± 0.09	859.96 ± 0.09
x1 = 0.003689	903.96 ± 0.07	893.18 ± 0.08	882.28 ± 0.08	871.25 ± 0.09	860.08 ± 0.09
x1 = 0.005866	904.1 ± 0.07	893.33 ± 0.08	882.43 ± 0.08	871.4 ± 0.09	860.22 ± 0.09
x1 = 0.008339	904.27 ± 0.07	893.5 ± 0.08	882.59 ± 0.08	871.56 ± 0.09	860.38 ± 0.09
x1 = 0.01068	904.43 ± 0.07	893.65 ± 0.08	882.75 ± 0.08	871.72 ± 0.09	860.54 ± 0.09
x1 = 0.01396	904.65 ± 0.07	893.88 ± 0.08	882.97 ± 0.08	871.93 ± 0.09	860.76 ± 0.09
x1 = 0.01768	904.91 ± 0.07	894.13 ± 0.08	883.23 ± 0.08	872.19 ± 0.09	861 ± 0.09
x1 = 0.0203	905.09 ± 0.07	894.31 ± 0.08	883.4 ± 0.08	872.36 ± 0.09	861.18 ± 0.09
x1 = 0.02398	905.35 ± 0.07	894.57 ± 0.08	883.66 ± 0.08	872.62 ± 0.09	861.43 ± 0.09
x1 = 0.02882	905.69 ± 0.07	894.9 ± 0.08	883.99 ± 0.08	872.95 ± 0.09	861.76 ± 0.09
x1 = 0.03403	906.06 ± 0.07	895.27 ± 0.08	884.36 ± 0.08	873.31 ± 0.09	862.11 ± 0.09
x1 = 0.03668	906.25 ± 0.07	895.46 ± 0.08	884.55 ± 0.08	873.49 ± 0.09	862.3 ± 0.09
x1 = 0.04255	906.67 ± 0.07	895.88 ± 0.08	884.96 ± 0.08	873.91 ± 0.09	862.71 ± 0.09
